Source: ChEMBL document CHEMBL2417374, “Resistance by allostery: a novel perspective for eg5-targeted drug design” (J Med Chem, 2013)
Active and inactive are the calls of the source. The rule behind the calls is not given here.

Test system: T1, Kinesin-like protein KIF11 (Homo sapiens), P52732 [D130V,A133D]
T1 sequence (whole entry): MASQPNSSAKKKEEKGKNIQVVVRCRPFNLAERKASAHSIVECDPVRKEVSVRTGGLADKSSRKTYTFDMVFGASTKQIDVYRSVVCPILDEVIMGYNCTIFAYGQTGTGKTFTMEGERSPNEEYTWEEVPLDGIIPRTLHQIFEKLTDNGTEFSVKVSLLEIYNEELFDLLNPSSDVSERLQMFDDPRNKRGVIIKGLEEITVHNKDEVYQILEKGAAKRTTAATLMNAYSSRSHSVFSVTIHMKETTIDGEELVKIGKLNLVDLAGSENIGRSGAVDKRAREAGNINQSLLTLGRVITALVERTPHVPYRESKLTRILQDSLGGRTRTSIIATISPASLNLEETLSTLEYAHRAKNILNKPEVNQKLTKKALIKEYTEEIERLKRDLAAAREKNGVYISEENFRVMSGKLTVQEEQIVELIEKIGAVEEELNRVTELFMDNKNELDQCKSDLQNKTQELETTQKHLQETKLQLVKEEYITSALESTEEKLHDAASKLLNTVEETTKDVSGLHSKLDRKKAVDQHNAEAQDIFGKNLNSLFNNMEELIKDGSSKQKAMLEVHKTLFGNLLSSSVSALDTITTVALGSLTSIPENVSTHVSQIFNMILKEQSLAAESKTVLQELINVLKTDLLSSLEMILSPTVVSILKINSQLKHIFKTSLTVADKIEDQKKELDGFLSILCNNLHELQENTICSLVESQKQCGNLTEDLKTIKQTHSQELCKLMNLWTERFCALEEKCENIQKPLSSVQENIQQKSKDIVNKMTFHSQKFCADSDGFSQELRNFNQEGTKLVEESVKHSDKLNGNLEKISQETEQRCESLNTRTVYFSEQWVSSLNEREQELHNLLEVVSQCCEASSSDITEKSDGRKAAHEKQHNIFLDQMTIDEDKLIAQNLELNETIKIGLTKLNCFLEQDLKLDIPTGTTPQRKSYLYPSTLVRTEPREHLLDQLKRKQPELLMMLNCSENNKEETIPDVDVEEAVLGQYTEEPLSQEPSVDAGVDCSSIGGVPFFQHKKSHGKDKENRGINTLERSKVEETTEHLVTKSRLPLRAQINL
Assay: Partial inhibition of MT-stimulated ATPase activity of Eg5 D130V/A133D (unknown origin)

inhibition: Active
SMILES: Cc1ccc(C(=O)N(CCCN)[C@@H](c2oc3cc(Cl)ccc3c(=O)c2Cc2ccccc2)C(C)C)cc1
